Source: US20120141478A1, “COMPOSITIONS AND METHODS FOR DELIVERING ANTI-ACTIVATED RAS ANTIBODIES” (Cellectis S.A., priority 2006, published 2012)

What was measured:
[1] = test system: human lung carcinoma expressing K-RAS; details: cited from earlier work
K-RASmt HCT 116 cells = assay: In vitro anti-proliferative activity (WST-1) on HCT 116; type: cell-based, human
Description: Cells were incubated for 120 hours with the antibody alone (Y13259; 700 nM), or the DPV3-Y13259 conjugate (700 nM), with DPV3-maleimide as internal controls (DPV3-mal; 700 nM). Non-relevant IgG1 anti-peroxydase immunoglobulins (IgG PO; 700 nM) and an inhibitor of RAS farnesyltransferase (FTI-276; 100 nM) were used as internal controls. Results are expressed as mean±SEM of three independent experiments performed in duplicate. *p<0.05 vs not treated cells.
HCT 116 and HT-29 were seeded at 8×10^3 cells/well (96-well plates) in medium+0.5% and 10% FCS (Foetal Calf Serum) respectively. The day after, cells were treated with increasing concentrations of tested compounds in complete medium (+10% FCS) and cells were counted overtime at 24 h, 48 h, 72 h and 120 h using the WST-1 method, described hereafter. The medium was removed and 100 μl of fresh medium without FCS supplemented with 10% WST-1 solution was added on cells for 2 h at 37° C., 5% CO2. Measurement of A450 nm−A690 nm (blank=0 cells) was performed to determine cell number.
CPP-Y13259 conjugates were tested in a cell proliferation assay on mutated RAS-expressing and wild-type RAS expressing cell lines (HCT 116 and HT-29, respectively). FTI-276, a farnesyltransferase inhibitor that inhibits RAS-mediated cell proliferation constituted a positive control. […]

[2] = biological target: mutated Ki-RAS of HCT 116 cells (human) (UniProt P01116); assay: cell-based or functional assay

CSCC[C@H](NC(=O)c1ccc(NC[C@@H](N)CS)cc1-c1ccccc1)C(=O)O [FTI-276]
effect on tumor growth in nude mice [1]: block the growth of a human lung carcinoma expressing K-RAS in nude mice | duration of the effect on HCT 116 cell proliferation (K-RASmt HCT 116 cells; 120 hours = maximum time tested): at least 120 hours | effect on HCT 116 cell proliferation (K-RASmt HCT 116 cells; FTI-276 100 nM, positive control): inhibited HCT 116 cell proliferation

DPV3-Y13259 conjugate (antibody)
efficient concentration, HCT 116 cell proliferation (WST-1) [2]: 85 to 700 nM
